Values after ≈ are worked out from the molar mass of the structure shown. Read-outs that look alike come from different tables or passages of the source.
Key:
Assay in all cases: MIC, CLSI broth microdilution
Type in all cases: cell-based
[1] = tested on: A. baumannii AABA1009 (Fluoroquinolone-resistant); details: Acinetobacter baumannii, Table 2, read-out: MIC AABA 1009
Summary of the method: (§1)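 MICs were read after 20 hours at 35° C in ambient air, with a final inoculum of 5×10^5 CFU/mL from saline-suspended overnight colonies. Serial two-fold dilutions in Mueller Hinton Broth followed the CLSI reference method (M7-A7), with QC strains E. coli ATCC 25922, P. aeruginosa ATCC 27853 and S. aureus ATCC 29213.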

[2] = tested on: S. aureus ASAU1033 (Fluoroquinolone-resistant); details: Staphylococcus aureus, Table 3
Summary of the method: as §1

[3] = tested on: S. pneumoniae ASPN001 (Fluoroquinolone-susceptible, ATCC49619); details: Streptococcus pneumoniae
Summary of the method: as §1

[4] = tested on: P. aeruginosa APAE002 (Fluoroquinolone susceptible); details: Pseudomonas aeruginosa, Table 3
Summary of the method: as §1

[5] = tested on: S. pneumoniae ASPN002 (Fluoroquinolone-susceptible, ATCC10813); details: Streptococcus pneumoniae, Table 3
Summary of the method: as §1

[6] = tested on: E. coli AECO002 (Fluoroquinolone susceptible); details: Escherichia coli, Table 3
Summary of the method: as §1

[7] = tested on: E. coli AECO086 (Fluoroquinolone-resistant); details: Escherichia coli, Table 3
Summary of the method: as §1

[8] = tested on: P. aeruginosa APAE001 (Fluoroquinolone-susceptible, ATCC27853); details: Pseudomonas aeruginosa
Summary of the method: as §1

[9] = tested on: E. coli AECO001 (Fluoroquinolone susceptible, ATCC25922); details: Escherichia coli
Summary of the method: as §1

[10] = tested on: S. aureus ASAU002 (Fluoroquinolone-susceptible, ATCC33591 (MRSA)); details: Staphylococcus aureus, Table 3
Summary of the method: as §1

[11] = tested on: S. pneumoniae ASPN1018 (Fluoroquinolone-resistant); details: Streptococcus pneumoniae, Table 3
Summary of the method: as §1

[12] = tested on: S. aureus ASAU001 (Fluoroquinolone-susceptible, ATCC29213); details: Staphylococcus aureus
Summary of the method: as §1

[13] = tested on: A. baumannii AABA1065 (Fluoroquinolone-susceptible); details: Acinetobacter baumannii
Summary of the method: as §1

[14] = tested on: E. coli AECO066 (Fluoroquinolone-resistant); details: Escherichia coli
Summary of the method: as §1

[15] = tested on: S. aureus ASAU1031 (Fluoroquinolone-resistant); details: Staphylococcus aureus
Summary of the method: as §1

[16] = tested on: S. pneumoniae ASPN1027 (Fluoroquinolone-resistant); details: Streptococcus pneumoniae
Summary of the method: as §1

[17] = tested on: P. aeruginosa APAE054 (Fluoroquinolone-resistant); details: Pseudomonas aeruginosa
Summary of the method: as §1

[18] = tested on: A. baumannii AABA1020 (Fluoroquinolone-resistant); details: Acinetobacter baumannii, Table 3
Summary of the method: as §1

[19] = Table 2, read-out: MIC ASPN 001
[20] = Table 2, read-out: MIC APAE 001
[21] = Table 2, 35° C., 20 hours, read-out: MIC AECO 001
[22] = Table 2, read-out: MIC ASAU 001
[23] = Table 2, read-out: MIC AABA 1065
[24] = Table 2, read-out: MIC AECO 066
[25] = Table 2, read-out: MIC ASAU 1031
[26] = Table 2, read-out: MIC ASPN 1027
[27] = Table 2, read-out: MIC APAE 054

| MIC [1] [µg/mL] | MIC [2] [µg/mL] | MIC [3, 19] [µg/mL] | MIC ([3]; Table 3) [µg/mL] | MIC [4] [µg/mL] | MIC [5] [µg/mL] | MIC [6] [µg/mL] | MIC [7] [µg/mL] | MIC [8, 20] [µg/mL] | MIC ([8]; Table 3) [µg/mL] | MIC [9, 21] [µg/mL] | MIC ([9]; Table 3) [µg/mL] | MIC [10] [µg/mL] | MIC [11] [µg/mL] | MIC [12, 22] [µg/mL] | MIC ([12]; Table 3) [µg/mL] | MIC [13, 23] [µg/mL] | MIC ([13]; Table 3) [µg/mL] | MIC [14, 24] [µg/mL] | MIC ([14]; Table 3) [µg/mL] | SMILES | further results |
| --- | --- | --- | --- | --- | --- | --- | --- | --- | --- | --- | --- | --- | --- | --- | --- | --- | --- | --- | --- | --- | --- |
| > 8 | > 8 | 1 to 8 (≈ 2.77 to 22.1 µM) | 1 to 2 (≈ 2.77 to 5.53 µM) | < 1 | 1 to 2 (≈ 2.77 to 5.53 µM) | < 1 | > 8 | 1 to 8 (≈ 2.77 to 22.1 µM) | 1 to 2 (≈ 2.77 to 5.53 µM) | ≤ 1 | < 1 | < 1 | > 8 | ≤ 1 | < 1 | ≤ 1 | < 1 | > 8 | > 8 | C[C@H]1COc2c(N3CCN(C)CC3)c(F)cc3c(=O)c(C(=O)O)cn1c23 [Levofloxacin, reference compound] | MIC [15, 25]: > 8 µg/mL; MIC ([15]; Table 3): > 8 µg/mL; MIC [16, 26]: > 8 µg/mL; MIC ([16]; Table 3): > 8 µg/mL; MIC [17, 27]: > 8 µg/mL; MIC ([17]; Table 3): > 8 µg/mL; MIC [18]: > 8 µg/mL |
| > 8 | > 8 | ≤ 1 | < 1 | 1 to 2 (≈ 2.49 to 4.98 µM) | < 1 | < 1 | > 8 | 1 to 8 (≈ 2.49 to 19.9 µM) | 1 to 2 (≈ 2.49 to 4.98 µM) | ≤ 1 | < 1 | < 1 | 2 to 8 (≈ 4.98 to 19.9 µM) | ≤ 1 | < 1 | ≤ 1 | < 1 | > 8 | > 8 | COc1c(N2C[C@@H]3CCCN[C@@H]3C2)c(F)cc2c(=O)c(C(=O)O)cn(C3CC3)c12 [Moxifloxacin, reference compound] | MIC [15, 25]: 1 to 8 µg/mL (≈ 2.49 to 19.9 µM); MIC ([15]; Table 3): 2 to 8 µg/mL (≈ 4.98 to 19.9 µM); MIC [16, 26]: 1 to 8 µg/mL (≈ 2.49 to 19.9 µM); MIC ([16]; Table 3): 2 to 8 µg/mL (≈ 4.98 to 19.9 µM); MIC [17, 27]: > 8 µg/mL; MIC ([17]; Table 3): > 8 µg/mL; MIC [18]: > 8 µg/mL |

Reference: patent US20120058989A1, “ANTIBACTERIAL FLUOROQUINOLONE ANALOGS” (Achaogen, Inc., priority 2008, published 2012)
